Source: patent US7271168B2, “Piperazine derivatives having SST1 antagonistic activity” (Novartis AG, priority 2001, dated 2007)
Like-named read-outs stand apart in the source and are kept apart here.

What was measured:
intruder rat = test: intruder test (intruder rat towards resident rat); type: in vivo
mice = test: social recognition test; type: in vivo; conditions: social recognition test in mice
Experimental: Moreover when given at doses of about 0.03 to 3 mg/kg p.o. to rodents, the agents of the invention counteract electroshock-induced amnesia, increase retention performance in a passive avoidance paradigm (Mondadori et. al., Pharmacology Communications 1992, 2: 93-97) and improve social recognition (Mondadori et al., Behavioural Brain Research 1996, 77: 227-229). The compounds are therefore indicated for the treatment of cognitive disturbances and learning/memory disorders.

[1] = biological target: somatostatin receptors (sst1) (Rattus norvegicus, UniProt P28646); test: somatostatin receptor affinity (pKd), rat; type: binding
Description: (§1) The following pKd values have been found:

[2] = biological target: T1, Somatostatin sst1 receptors (Homo sapiens, UniProt P30872); test: somatostatin receptor affinity (pKd), human; type: binding
Description: as §1

[3] = biological target: somatostatin receptors (sst1) (Mus musculus, UniProt P30873); test: somatostatin receptor affinity (pKd), mouse; type: binding
Description: as §1

[4] = biological target: T1, Somatostatin sst1 receptors

T1 sequence (P30872 whole entry): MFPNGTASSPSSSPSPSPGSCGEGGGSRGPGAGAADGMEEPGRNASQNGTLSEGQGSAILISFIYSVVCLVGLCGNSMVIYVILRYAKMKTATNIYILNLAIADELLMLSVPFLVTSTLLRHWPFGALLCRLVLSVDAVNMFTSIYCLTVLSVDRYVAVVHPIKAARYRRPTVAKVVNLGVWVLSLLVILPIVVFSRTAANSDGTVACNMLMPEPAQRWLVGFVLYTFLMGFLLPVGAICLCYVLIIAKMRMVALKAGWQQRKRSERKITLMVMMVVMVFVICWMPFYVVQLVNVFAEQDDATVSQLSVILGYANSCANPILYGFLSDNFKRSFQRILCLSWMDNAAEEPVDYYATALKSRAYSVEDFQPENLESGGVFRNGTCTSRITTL
Chain of somatostatin receptors (sst1) (Rattus norvegicus, UniProt P28646) (P28646 whole entry): as the sequence (P30872 whole entry) above, with S8P, S11T, P16S, S20G, G25V, G26C, A32S, A45S, T385A, T389S counted along it
Chain of somatostatin receptors (sst1) (Mus musculus, UniProt P30873) (P30873 whole entry): as the sequence (P30872 whole entry) above, with G25A, G26C, A32S, T385A, T389S counted along it

Kd ([1]; rat, read-out: pKd (converted))	selectivity among somatostatin receptors [4]	SMILES	duration of social contacts of the intruder rat towards the resident rat (intruder rat)	learning/memory performance (mice)	Kd [1]	Kd [2]	Kd [3]
–	–	CN(CCC(=O)N1CCN(c2ccc(F)c(F)c2)CC1)CCC1c2ccccc2Oc2ccccc21 [Compound A, 1-[4-(3,4-difluoro-phenyl)-piperazin-1-yl]-3-{methyl-[2-(9H-xanthen-9-yl)-ethyl]-amino}-propan-1-one]	significantly increase	specific enhancing effect	0.794 nM	1.58 to 5.01 nM	3.98 to 10 nM
0.501 nM	sst1 selective	CN(CCC(=O)N1CCN(c2ccc(F)c(F)c2)CC1)CCC1c2ccccc2-c2ccccc21 [Compound B, 1-[4-(3,4-difluoro-phenyl)-piperazin-1-yl]-3-{[2-(9H-fluoren-9-yl)-ethyl]-methyl-amino}-propan-1-one]	significantly increase	specific enhancing effect	–	2.51 to 6.31 nM	2.51 to 5.01 nM
